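48-hour exposure; five concentrations; linearly interpolated endpoints. GI50 = concentration required for 50% inhibition of growth. TGI: concentration producing complete growth inhibition.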
Tests used:
Assay in all cases: NCI anticancer screen, dose series, 48 h
UO-31 renal = tested on: UO-31 renal
K-562 leukemia = tested on: K-562 leukemia
COLO 205 colon = tested on: COLO 205 colon
M14 melanoma = tested on: M14 melanoma

| Compound | TGI (UO-31 renal) | TGI (K-562 leukemia) | TGI (COLO 205 colon) | TGI (M14 melanoma) | GI50 (UO-31 renal) | GI50 (K-562 leukemia) | GI50 (COLO 205 colon) | GI50 (M14 melanoma) |
| --- | --- | --- | --- | --- | --- | --- | --- | --- |
| CCn1c(SCC(=O)NNC(=S)Nc2ccc(F)cc2)nc2ccccc2c1=O | > 100 µM | > 100 µM | > 100 µM | > 100 µM |  |  |  |  |
| COc1ccc(NC(C)=O)cc1N1C(=O)/C(=C\c2cc(OC)c(OC)c(OC)c2)S(=O)(=O)C1c1ccccc1 (configuration not stated) | > 100 µM | > 100 µM | > 100 µM | > 100 µM |  |  |  |  |
| N#CC1=C(N2CCOCC2)CCC1 | > 100 µM | > 100 µM | > 100 µM | > 100 µM |  |  |  |  |
| O=c1[nH]c2ccsc2c(=O)n1COCc1ccccc1 | > 100 µM | > 100 µM | > 100 µM | > 100 µM |  |  |  |  |
| CC1=[N+]([O-])C(C)(C)N(O)C1(C)C | > 100 µM | > 100 µM | > 100 µM | > 100 µM |  |  |  |  |
| CCOC(=O)Oc1cc2c(ccn2C)c2c1c1ccccc1n2C(=O)OCC | > 100 µM | > 100 µM | > 100 µM | > 100 µM |  |  |  |  |
| CC1(C)N=C(N)N=C(N)N1c1cccc(OCc2cccc([N+](=O)[O-])c2)c1 | > 100 µM | > 100 µM | > 100 µM | > 100 µM |  |  |  |  |
| C/C(=C\COP(=O)(O)OP(=O)(O)O)CC/C=C(\C)CNc1ccc([N+](=O)[O-])cc1 | > 100 µM | > 100 µM | > 100 µM | > 100 µM |  |  |  |  |
| C=C1CC(COc2ccc3ccc(=O)oc3c2)(c2ccccc2)OC1=O (configuration not stated) | 9.76 µM | 2.45 µM | 1.79 µM | 2.4 µM |  |  |  |  |
| N#CC1=C(N)Nc2nc3ccccc3n2C1c1ccccc1 (configuration not stated) | > 100 µM | > 100 µM | > 100 µM | > 100 µM |  |  |  |  |
| COc1ccc(-n2cnc3c(NC(C)(C)C(=O)O)ncnc32)cc1 | > 100 µM | > 100 µM | > 100 µM | > 100 µM |  |  |  |  |
| O=C1CCSc2c(cnc3ccccc23)N1 | > 100 µM | > 100 µM | > 100 µM | > 100 µM |  |  |  |  |
| COC(=O)/C(C#N)=C(\Nc1ccccc1)N1CCCCC1 | > 100 µM | > 100 µM | > 100 µM | > 100 µM |  |  |  |  |
| CCOn1cc(C2=C(c3c[nH]c4ccccc34)C(=O)NC2=O)c2ccccc21 | > 47.4 µM | > 33.1 µM |  | 17.9 µM | 16.9 µM | < 0.0139 µM | < 0.0439 µM | 0.0542 µM |
| NC(=O)NC(=O)c1ccc(NC(=O)CBr)cc1 | 2.78 µM | 3.92 µM | 2.99 µM |  |  |  |  |  |
| COc1cc(/C=N/NC2=NCCCN2)ccc1O | > 100 µM | > 100 µM | > 100 µM | > 100 µM |  |  |  |  |
| CC(C)=CCC[C@@H](C)C1=C(Nc2ccccc2)C(O)=C(C)C(=O)C1=O | 15.5 µM | > 39.9 µM | 13.1 µM | 15.6 µM |  |  |  |  |
| CNC(=S)NNC1=NCCCCN1 | > 100 µM | > 100 µM | > 100 µM | > 100 µM |  |  |  |  |
| CCOC(=O)c1c(NC(=O)c2ccc(OC)cc2)sc2c1CCCC2 | > 100 µM | > 100 µM | > 100 µM | > 100 µM |  |  |  |  |

| Compound | TGI (UO-31 renal) | TGI (K-562 leukemia) | TGI (COLO 205 colon) | TGI (M14 melanoma) | GI50 (UO-31 renal) | GI50 (K-562 leukemia) | GI50 (COLO 205 colon) | GI50 (M14 melanoma) |
| --- | --- | --- | --- | --- | --- | --- | --- | --- |
| CC(C)N1CCCOC(c2ccc([N+](=O)[O-])cc2)O1 (configuration not stated) | > 100 µM | > 100 µM | > 100 µM | > 100 µM |  |  |  |  |
| CCCCCNC1=CC(=O)c2ccccc2C1=O | > 88.6 µM | > 100 µM | > 100 µM | > 100 µM |  |  |  |  |
| C#C[C@]1(O)CC[C@H]2[C@@H]3CCC4=C/C(=N\OCCN5CCCC5)CC[C@]4(C)[C@H]3CC[C@@]21C | 32.9 µM | > 39.2 µM | 43.1 µM | 22.5 µM |  |  |  |  |
| Cc1nc2ccc(N=NN(C)C)cc2[nH]1 | > 100 µM |  | > 100 µM | > 100 µM |  |  |  |  |
| COc1ccc2c(c1)/C(=C\c1cccc(/C=C3/C(=O)Nc4ccc(OC)cc43)n1)C(=O)N2 | 3.81 µM | 2.02 µM | 2.04 µM | 3.22 µM |  |  |  |  |
| O=C1c2cccnc2C(=O)c2c1nc1ccccc1c2-c1cncc(-c2c3c(nc4ccccc24)C(=O)c2cccnc2C3=O)c1 | 0.946 µM | > 24.8 µM | 0.617 µM | 0.576 µM |  |  |  |  |
| O=Cc1ccc2c(c1)CC1(C2)Cc2ccc(C=O)cc2C1 | > 50.6 µM | 12.9 µM | 70.9 µM | 19.7 µM |  |  |  |  |
| COc1cc(C2S/C(=C/c3ccccc3)C(=O)N2c2ccc([N+](=O)[O-])cc2)cc(OC)c1OC (configuration not stated) | > 100 µM | > 100 µM | > 100 µM | > 100 µM |  |  |  |  |
| CC1=CCC[C@]2(C)C1=CC(=O)O[C@H]2c1ccoc1 | > 100 µM | > 100 µM | > 100 µM |  |  |  |  |  |
| COc1ccc(CCN(C)C(=O)CC(C#N)(c2ccccc2)c2ccc(OC)c(OC)c2)cc1OC (configuration not stated) | > 100 µM | > 100 µM | > 100 µM | > 100 µM |  |  |  |  |
| CC(C)(CCCCC(C)(C)NCC1COc2ccccc2O1)NCC1COc2ccccc2O1 (configuration not stated) |  | > 10 µM | 4.12 µM | 3.4 µM |  |  |  |  |
| O=c1[nH]n(Cc2ccccc2CCl)c2ccc([N+](=O)[O-])cc12 | > 100 µM | > 100 µM | 62.5 µM | > 100 µM |  |  |  |  |
| COC(=O)c1cc(C#N)[nH]c1-c1cccs1 | > 100 µM | > 100 µM | > 100 µM | > 100 µM |  |  |  |  |
| CC(C)C(Cl)CC/C(CBr)=C(\Cl)CCl (configuration not stated) | 30.8 µM | 3.69 µM | 12.8 µM | 4.06 µM |  |  |  |  |
| Cc1cc(NCC2CC/C(=C\C=C\c3ccccc3)C2=O)no1 (configuration not stated) | > 100 µM | > 100 µM | > 100 µM | > 100 µM |  |  |  |  |
| Nc1c(Cl)c([N+](=O)[O-])cc2c1OCCCCO2 | > 100 µM | > 100 µM | > 100 µM | > 100 µM |  |  |  |  |
| COc1cc(/C=C2\N=C(c3ccccc3)N(/N=C/c3cc4cc(C)ccc4nc3Cl)C2=O)cc(OC)c1OC | > 100 µM | > 100 µM | 63.7 µM | > 100 µM |  |  |  |  |
| Cc1ccccc1NC(=O)/C(C#N)=N\Nc1nc[nH]c1C(N)=O | > 100 µM | > 100 µM | > 100 µM | > 100 µM |  |  |  |  |

Reference: PubChem BioAssay (NCI)
